Key:
IFN-β reporter = IFN-β reporter assay in THP1 blue cells; conditions: for inducing the expression of IFN-β reporter: THP1 blue cells, cyclic dinucleotides added to the culture media (FIG. 3A)
Excerpt: (§1) To confirm that cGAMP can induce the expression of IFN-β, we stimulated human monocytes THP1 blue cells with cGAMP and other three cyclic dinucleotides added to the culture media.

IFN-β [1] = assay: IFN-β ELISA of THP1 culture supernatant; conditions: for IFN-β levels in the culture supernatant by ELISA, response: THP1 cells (FIG. 3B); for IFN-β production: THP1 cells (FIGS. 13A-B)
Excerpt: as §1

[2] = system: IFN-β in control cell lines; assay: IFN-β induction in control cell lines; conditions: two control cell lines tested (FIG. 7)
[3] = system: renal cancer cell line A498; assay: NCI60 antitumor screen, A498; conditions: single dose of 10 μM
[4] = system: genome-wide gene expression; assay: Microarray analysis of gene expression in THP1 cells; conditions: 20 μg/ml, 4 hours and 8 hours post treatment (FIG. 5)
[5] = system: leukemia cell line CCRF-CEM; assay: MTT assay, CCRF-CEM; format: cell-based, human; conditions: control leukemia cell line (FIG. 8)
cytokines and chemokines = assay: Multiplex cytokine assays in THP1 cells
[6] = system: IFN-β in renal cancer cell line A498; assay: IFN-β induction in A498; conditions: FIG. 7A
[7] = system: MMTV-BALB-neuT mouse mammary tumors; assay: MMTV-BALB-neuT spontaneous breast cancer model; conditions: 0.1 mg per mouse intra-tumor once a day for three days; day 4 post-treatment; p value of 0.0009 (FIG. 15D)
Description: Comparisons were made between vehicle (veh.) and cGAMP treatment. The tumor growth was monitored for 4 days and growth rate was examined using serial caliper measurements. The tumor volume was calculated using the equation (a×b^2)/2 where “a” and “b” are length and width of the tumor, respectively. At the completion of the experiments, tumors were excised and statistical significance of differences in tumor volume was analyzed.

IFN-β [8] = conditions: intravenous (i.v.) injection, 100 μg/mice, sera ELISA (FIG. 3C)
Excerpt: FIG. 3C is an IFN-β ELISA of sera from mice injected with cGAMP.

[9] = system: neuronal cancer cell line SF539; assay: MTT assay, SF539
Description: (§2) MTT solution: 5 mg/mL Thiazolyl Blue Tetrazolium Bromide (MTT) in PBS. The solution was filter sterilized after adding MTT and stored at −20° C.; MTT solvent: 4 mM HCl, 0.1% Nondet P-40 (NP40) in isopropanol. cGAMP or cGAsMP solutions: 10-30 mg/ml in PBS, filter sterilized using a 0.2 μm filter. • B. MTT Assay for Attaching Cancer Cell Lines SF539, U251, A498, and ACHN
On day one, one T-25 flask was trypsinized and 5 ml of complete media was added to the cells. The cells and media were centrifuged in a sterile 15 ml falcon tube at 300×g rcf in the swinging bucket rotor for 5 min. […] Cells were counted and recorded per ml. Cells were diluted (cv=cv) to 75,000 cells per ml with complete RPMI media. 100 μl of cells (7500 total cells) were added into each well of a 96 well plate and incubated overnight. 24 hours later, 100 μl of medium or cGAMP or cGAsMP solutions were added to each well. On the fifth day, 20 μl of 5 mg/ml MTT were added to each well. One set of wells with MTT but no cells served as a control. All steps were done aseptically. The wells were incubated for 3.5 hours at 37° C. in a CO2 incubator. Media was carefully removed, taking care not to disturb the cells. No PBS rinse was performed. 150 μl MTT solvent was added. The plate was covered with foil and cells agitated on orbital shaker for 15 min. The absorbance was measured at 590 nm using a plate reader. Each assay was repeated five times. • C.

leukemia cell line SR [10] = assay: MTT assay, SR; format: cell-based, human
[11] = system: CNS cancer cell line SF539; assay: NCI60 antitumor screen, SF539; conditions: single dose of 10 μM
NF-κB = NF-κB reporter assays
[12] = system: IFN-β in CNS cancer cell line SF539; assay: IFN-β induction in SF539; conditions: FIG. 7B
[13] = system: renal cancer cell line A498; assay: MTT assay, A498; conditions: FIG. 6B
Description: as §2
On day one, one T-25 flask was trypsinized and 5 ml of complete media was added to the cells. The cells and media were centrifuged in a sterile 15 ml falcon tube at 300×g rcf in the swinging bucket rotor for 5 min. […] Cells were counted and recorded per ml. Cells were diluted (cv=cv) to 75,000 cells per ml with complete RPMI media. 100 μl of cells (7500 total cells) were added into each well of a 96 well plate and incubated overnight. 24 hours later, 100 μl of medium or cGAMP or cGAsMP solutions were added to each well. On the fifth day, 20 μl of 5 mg/ml MTT were added to each well. One set of wells with MTT but no cells served as a control. All steps were done aseptically. The wells were incubated for 3.5 hours at 37° C. in a CO2 incubator. Media was carefully removed, taking care not to disturb the cells. No PBS rinse was performed. 150 μl MTT solvent was added. The plate was covered with foil and cells agitated on orbital shaker for 15 min. The absorbance was measured at 590 nm using a plate reader. […]

leukemia cell line SR [14] = assay: NCI60 antitumor screen, SR; conditions: single dose of 10 μM

## Nc1nc2c(ncn2[C@@H]2O[C@@H]3COP(=O)(O)O[C@H]4[C@@H](O)[C@H](n5cnc6c(N)ncnc65)O[C@@H]4COP(=O)(O)O[C@H]3[C@H]2O)c(=O)[nH]1 [3′,5′ cGAMP, reference compound]
IFN-β reporter
  inducing the expression of IFN-β reporter: lower activity
IFN-β [1]
  IFN-β levels in the culture supernatant by ELISA, response: much weaker

## Nc1nc2c(ncn2[C@@H]2O[C@@H]3COP(=O)(O)O[C@H]4[C@@H](O)[C@H](n5cnc6c(N)ncnc65)O[C@@H]4COP(=O)(O)O[C@@H]2[C@@H]3O)c(=O)[nH]1 [cGAMP, 2′,5′ cGAMP]
[2]
  induction of IFN-β: quite low
[3]
  growth inhibition: effectively inhibited the growth
[4]
  number of genes up-regulated: over 200 genes
[5]
  response of cell line to treatment, MTT: did not respond
Cytokines and chemokines; THP1 cell
  expression of IL-1β: does not up-regulate
Cytokines and chemokines; THP1 cell (FIG. 4)
  expression of IL-8, TNF-α, GROα, IP-10, MCP-1, MCP-2, and RANTES: up-regulation
[6]
  induction of IFN-β: induces IFN-β
[7]
  tumor growth and tumor size: effective for both reducing tumor growth and reducing tumor size
IFN-β [8]
  induction of IFN-β in mice: rapid responses
IFN-β reporter
  inducing the expression of IFN-β reporter: very potent
[9]; FIG. 6A
  growth suppression, MTT: suppresses the growth
[9]; FIG. 14A
  antitumor activity, MTT: have antitumor activity
Leukemia cell line SR [10]; FIG. 8A (cGAMP), FIG. 8B (IFN-β)
  response of cell line to treatment, MTT: responds strongly
Leukemia cell line SR [10]; FIG. 14B
  antitumor activity, MTT: have antitumor activity
[11]
  growth inhibition: effectively inhibited the growth
NF-κB
  activation of NF-κB: stimulate the activation of NF-κB
[12]
  induction of IFN-β: induces IFN-β
[13]
  growth suppression, MTT: suppresses the growth
IFN-β [1]
  IFN-β levels in the culture supernatant by ELISA, response: rapid responses
  IFN-β production: can induce
IFN-β [1]; THP1 cells, ELISA (FIG. 3B)
  time at which induction of IFN-β peaked: 8-10 hours post stimulation
Leukemia cell line SR [14]
  growth inhibition: effectively inhibited the growth

## Nc1nc2c(ncn2C2OC3COP(=O)(O)OC4C(COP(O)(=S)OC2C3O)OC(n2cnc3c(N)ncnc32)C4O)c(=O)[nH]1 (stereo not shown) [cGAsMP, 2′5′-cGAsMP]
IFN-β reporter; THP1 cells, 0.2 to 25 μg/ml (FIG. 13B)
  potency in inducing IFN-β reporter gene expression, compared: more potent than cGAMP
[9]; FIG. 14A
  antitumor activity, MTT: have antitumor activity
  impact on cell viability compared with cGAMP: generally a bigger impact on cell viability at lower concentrations
Leukemia cell line SR [10]; FIG. 14B
  antitumor activity, MTT: have antitumor activity
  impact on cell viability compared with cGAMP: generally a bigger impact on cell viability at lower concentrations
IFN-β [1]
  IFN-β production: can induce
IFN-β [1]; THP1 cells, 5 and 25 μg/ml, ELISA (FIG. 13A)
  IFN-β levels relative to cGAMP: 5-10 times
